Data: PubChem BioAssay AID1963844 (Molecular Pharmacology Branch, DTP, NCI, 2024)
Several values for one entry are separate records, joined by “and”; a condition that tells them apart may be missing. Equal values may be shown once.

Test system: 422866-222-R5-J1-PDC complex spheroid viability
Test: Anticancer human tumor 422866-222-R5-J1-PDC patient-derived pancreatic adenocarcinoma cell line growth inhibition [POLQ]
Settings: for viability, T/C: stronger effect = lower value; for IC50: curve of compound
Experimental: Multicellular complex tumor spheroid response to Polymerase (POL) inhibitors (novobiocin, ART-558, RP6685) in combination with a variety of drugs and investigational agents in selected tumor cell lines
The POL inhibitors (novobiocin, ART-558, and RP6685) were evaluated both individually and in combination with standard of care and investigational anticancer small molecules within a complex spheroid model of solid tumors. . Complex spheroids include a stromal component modeled by human endothelial cells (HUVEC) and fibroblasts modeled by human mesenchymal stem cells (MSCs). The concentration ranges selected for each drug and investigational agent were based upon clinically achievable concentrations if the clinical Cmax of the agent was known.
Compounds. The drugs and investigational agents: novobiocin (NSC847541), ART-558 (NSC835418), RP-6685 (NSC848927), peposertib (NSC802822), ceralasertib (NSC780249), elimusertib (NSC800525), camonsertib (NSC841442), AZD-1390 (NSC803789), olaparib (NSC753686), talazoparib (NSC767125), rucaparib (NSC756644), sotorasib (NSC818433), MRTX-1133 (NSC836407), SN-38 (NSC673596), topotecan (NSC609699), epotoside (NSC141540), doxorubicin (NSC123127), gemcitabine (NSC613327), 5-fluorouracil (NSC19893), paclitaxel (NSC125973), vemurafenib (NSC761431), MSA-2 (NSC828583), SN-011 (NSC837082), adavosertib (NSC754352), prexasertib (NSC758257), carboplatin (NSC241240) and oxaliplatin (NSC266046), were obtained from the National Cancer Institute (NCI) Developmental Therapeutics Program Chemical Repository (21). The FDA-approved anticancer drug set is available from the Developmental Therapeutics Program at https://dtp.cancer.gov/organization/dscb/obtaining/. […] The stock solutions were prepared in dimethyl sulfoxide (DMSO, Sigma-Aldrich, St. Louis, MO, cat. D2650), except for the platinum compounds which were prepared in saline (Quality Biological, Gaithersburg, MD, cat. 114-055-101), at 800-fold the tested concentration and stored at -70 degrees C prior to their use. All drugs and investigational agents were tested over a range starting from a high concentration at or near the clinical Cmax and decreasing in half-log increments. If the clinical Cmax for an agent had not been determined, the highest concentration tested was 10 microM, except for SN-38, which was tested at a high concentration of 1 microM.
Cell Culture. All cells were maintained in an incubator at 37 degrees C and 5% CO2 with 95% humidity. The PDC lines were cultured according to standard operating procedures established by the NCI PDMR (https://pdmr.cancer.gov). Table 3 of the manuscript, lists the cell lines along with the number of the three cell types plated to form the mct-spheroids and media for tumor cell growth. After thawing, all PDC lines, except 997537-175-T-J1-PDC and 415267-285-R-J2-PDC, were cultured in Matrigel-coated flasks prepared with a working solution of 1X Ham's F-12 nutrient mix, without supplementation (Thermo Fisher Scientific, cat. 11765054), 100 U/mL penicillin-streptomycin (Thermo Fisher Scientific, cat. 15140122), and 2.5% Matrigel (Corning Inc., Corning, NY, cat. 354248) for the first three passages. The two PDC lines 997537-175-T-J1-PDC and 415267-285-R-J2-PDC were cultured on uncoated flasks. The 857933-349-R-J2-PDC line was cultured in 6C/Colon 1B media containing advanced DMEM/F-12 (Thermo Fisher Scientific, cat. 12634028), 10 mM HEPES (Thermo Fisher Scientific, cat. 15630080), 1X GlutaMAX supplement (Thermo Fisher Scientific, cat. 35050061), 0.1 mg/mL primocin (InvivoGen, San Diego, CA, cat. ant-pm-2), 10% defined fetal bovine serum, heat inactivated (HyClone Laboratories Inc., Logan, UT, cat. SH30070.03HI), 50% L-WRN conditioned media (ATCC, cat. CRL-3276), 1.25 mM N-Acetyl-L-cysteine (Sigma-Aldrich, cat. A9165), 10 mM nicotinamide (Sigma-Aldrich, cat. N0636), 1X B-27 supplement (Thermo Fisher Scientific, cat. 17504044), 1X N-2 supplement (Thermo Fisher Scientific, cat. […]
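Further: spheroids exposed to compounds for one week before readout.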
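Wherever viability, T/C is given: percent of DMSO vehicle wells luminescence so 100% = untreated viability.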

SMILES | viability, T/C (compound 0.0316 µM) | viability, T/C (compound 0.1 µM) | viability, T/C (compound 0.316 µM) | viability, T/C (compound 1 µM) | viability, T/C (compound 3.16 µM) | viability, T/C (compound 10 µM) | IC50 | viability, T/C (compound 0.00316 µM) | viability, T/C (compound 0.01 µM) | viability, T/C (compound 0.00949 µM) | viability, T/C (compound 0.03 µM) | viability, T/C (compound 0.0949 µM) | viability, T/C (compound 0.3 µM) | viability, T/C (compound 0.949 µM) | viability, T/C (compound 3 µM) | viability, T/C (compound 0.000316 µM) | viability, T/C (compound 0.001 µM)
C#Cc1c(F)ccc2cc(O)cc(-c3ncc4c(N5CC6CCC(C5)N6)nc(OCC56CCCN5CC(F)C6)nc4c3F)c12 (stereo unspecified) | 93% and 91.1% and 102% | 80.5% and 89.6% and 83.2% | 60.1% and 59.7% and 68.7% | 44% and 50.6% and 51.8% | 33.9% and 34.4% and 34.3% | 26.9% and 24.2% and 26% | 666 nM and 869 nM and 1060 nM |  |  |  |  |  |  |  |  |  | 
C=CC(=O)N1CCN(c2nc(=O)n(-c3c(C)ccnc3C(C)C)c3nc(-c4c(O)cccc4F)c(F)cc23)C(C)C1 (stereo unspecified) | 30.6% and 30.5% and 34.5% | 23.7% and 28.7% and 31.4% | 24.4% and 29.1% and 24.3% | 23.3% and 29.6% and 26.2% | 25.1% and 22.9% and 26.6% | 28.1% and 23.5% and 24.2% | < 31.6 nM |  |  |  |  |  |  |  |  |  | 
C=CCn1c(=O)c2cnc(Nc3ccc(N4CCN(C)CC4)cc3)nc2n1-c1cccc(C(C)(C)O)n1 | 105% and 93.5% and 83.3% | 85.7% and 91% and 78.1% | 56% and 43.9% and 56.5% | 36% and 31% and 34.6% |  |  | 434 nM and 272 nM and 446 nM | 86.1% and 96.9% and 101% | 105% and 93% and 107% |  |  |  |  |  |  |  | 
CC(=O)O[C@H]1C(=O)[C@@]2(C)[C@H]([C@H](OC(=O)c3ccccc3)[C@]3(O)C[C@H](OC(=O)[C@H](O)[C@@H](NC(=O)c4ccccc4)c4ccccc4)C(C)=C1C3(C)C)[C@]1(OC(C)=O)CO[C@@H]1C[C@@H]2O |  |  |  |  |  |  | > 3000 nM |  |  | 50.9% and 53.8% and 66.3% | 50.2% and 51.8% and 56.2% | 54.2% and 52.1% and 68.6% | 64.3% and 52.8% and 60.4% | 53.7% and 57.4% and 68.9% | 61.5% and 58.4% and 69.8% |  | 
CC(C)n1c(=O)n(C)c2cnc3cc(F)c(-c4ccc(OCCCN5CCCCC5)nc4)cc3c21 | 105% and 90.3% and 107% | 98.6% and 91.8% and 89.1% | 110% and 103% and 104% |  | 93.9% and 88.3% and 79.2% | 70.4% and 52.7% and 75.8% | > 10000 nM |  |  |  |  |  |  |  |  |  | 
CC1COCCN1c1cc(-c2ccnn2C)c2ccnc(-c3ccn[nH]3)c2n1 (stereo unspecified) | 76.8% and 96.8% and 97.8% | 61.1% and 55.4% and 46.2% | 38.6% and 42.8% and 35.1% | 44.4% and 36.6% and 37.6% | 80.4% and 81.7% and 64% | 69.2% and 80.5% and 68.2% | > 10000 nM and 10000 nM |  |  |  |  |  |  |  |  |  | 
CC1COCCN1c1cc(C2(O)CC3CCC(C2)O3)c2cnn(-c3ccn[nH]3)c2n1 (stereo unspecified) | 81.2% and 74.1% and 69.6% | 53.5% and 43.4% and 42.3% | 50.6% and 44.2% and 35.5% | 84% and 70.7% and 73.2% | 80.6% and 79% and 77.3% | 65.8% and 78.8% and 62.6% | > 10000 nM |  |  |  |  |  |  |  |  |  | 
CC1COCCN1c1cc(C2(S(C)(=N)=O)CC2)nc(-c2ccnc3[nH]ccc23)n1 (stereo unspecified) | 92.3% and 91.5% and 116% | 101% and 93.1% and 100% | 93.4% and 95.6% and 96.3% | 74% and 72.6% and 85.2% | 49.9% and 44.6% and 41.7% | 39.9% and 30.8% and 42% | 3010 nM and 2460 nM and 2640 nM |  |  |  |  |  |  |  |  |  | 
CCCS(=O)(=O)Nc1ccc(F)c(C(=O)c2c[nH]c3ncc(-c4ccc(Cl)cc4)cc23)c1F | 102% and 117% and 105% | 115% and 138% and 140% | 130% and 119% and 128% | 163% (2×) and 148% | 194% and 210% and 192% |  | > 10000 nM |  |  |  |  |  |  |  |  |  | 
CC[C@@]1(O)C(=O)OCc2c1cc1n(c2=O)Cc2cc3c(CN(C)C)c(O)ccc3nc2-1 | 48.4% and 37.3% and 41.3% | 36% and 32.2% and 33.8% |  |  |  |  | 28.8 nM and 20 nM and 21.1 nM | 88% and 77% and 98.9% | 70.4% and 68.2% and 68.5% |  |  |  |  |  |  | 104% and 91% and 103% | 106% and 95.4% and 94.5%
CCc1c2c(nc3ccc(O)cc13)-c1cc3c(c(=O)n1C2)COC(=O)[C@]3(O)CC | 39.4% and 34.2% and 30.3% | 39.1% and 34% and 31.1% | 32.7% and 37.2% and 29.6% | 24.8% and 18.2% and 24.5% |  |  | < 3.16 nM | 44.8% and 37.1% and 42.1% | 37.5% and 32.6% and 33.8% |  |  |  |  |  |  |  | 
CCc1cc2c(N3CCc4c(cc(Cn5ccnc5)cc4-c4cn(C)nc4C(F)(F)F)C3=O)cc(C)nc2c(OC)n1 | 89.5% and 92.6% and 79.2% | 93.5% and 80.2% and 93.8% | 96.5% and 104% and 95.6% | 120% and 102% and 96.1% |  | 109% and 99.8% and 115% | > 10000 nM |  |  |  |  |  |  |  |  |  | 
